# Experimental data: patent US20240398737A1, “FUNCTIONALIZED LONG-CHAIN HYDROCARBON MONO- AND DI-CARBOXYLIC ACIDS AND DERIVATIVES THEREOF, AND THEIR USE FOR THE PREVENTION OR TREATMENT OF DISEASE” (Espervita Therapeutics, Inc., priority 2021, published 2024)
# Values joined by “and” are separate entries in the source; they are usually repeats but may differ in a detail not shown here. Equal entries are not always repeated. “Also recorded” adds a separate entry of the source.
# Columns and labels:
# [1] = target: MAPKAPK2 (Homo sapiens (Human), UniProt P49137); experiment: Wild type kinase screen: MAPKAPK2; assay type: biochemical; conditions: compound at 10 μM, 10 μM ATP, Data 1 and Data 2 duplicates
# Sequence of MAPKAPK2 (P49137 whole entry, species assumed): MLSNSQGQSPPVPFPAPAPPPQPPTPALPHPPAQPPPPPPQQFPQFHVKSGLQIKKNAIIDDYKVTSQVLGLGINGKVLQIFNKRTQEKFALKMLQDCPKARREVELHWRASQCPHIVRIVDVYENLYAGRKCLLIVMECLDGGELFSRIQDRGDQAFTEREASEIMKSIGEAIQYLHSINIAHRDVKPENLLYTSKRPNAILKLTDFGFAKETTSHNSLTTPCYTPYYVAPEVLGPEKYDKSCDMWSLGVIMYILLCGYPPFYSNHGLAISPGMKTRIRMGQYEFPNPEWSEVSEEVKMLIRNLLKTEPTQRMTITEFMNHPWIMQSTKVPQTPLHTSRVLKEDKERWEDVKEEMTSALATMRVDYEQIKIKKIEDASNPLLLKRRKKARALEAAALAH
# [2] = test system: human hematopoietic stem and progenitor cells; experiment: Megakaryopoiesis and platelet production in cultured human hematopoietic stem and progenitor cells; assay type: cell-based; conditions: for Inhibition of megakaryocyte/platelet parameters after addition on day 6 of culture: 30 μM added on day 6; for Inhibition of megakaryopoiesis or platelet production (overall): 30 μM, cultured human HSPC; for CD41a+ mean fluorescence intensity (MFI), normalized / Normalized cell size (CD41a+) / CD41a CD42b+ counts (mature megakaryocytes), normalized to reference media control / CD41a+ cells (megakaryocytes), normalized to reference media control / Platelet counts, normalized to reference media control: added day 0, 8 days culture, I-32 and I-1 30 μM, ABT-737 6 μmol; for CD41a CD42b+ counts (mature megakaryocytes), normalized to reference media control / CD41a+ cells (megakaryocytes), normalized to reference media control / Platelet counts, normalized to reference media control: average±SD
# Procedure: Materials and Methods. Hematopoietic stem and progenitor cells, identified as viable CD45+ CD34+ cells, were isolated from peripheral blood of healthy donors by a method known in the art (see Ivetic N, Nazi I, Karim N et al. Producing megakaryocytes from a human peripheral blood source. Transfusion 2016; 56:1066-74). These isolated cells were then analyzed for purity before being expanded for four days using a commercial supplement to increase their cell population. After expansion, the cells were analyzed for purity, washed, and stimulated with a saturating concentration of thrombopoietin (20 ng/mL) and stem cell factor (50 ng/mL) to begin megakaryopoiesis. Compound I-32 and Compound I-1 were added at this timepoint at a concentration of 30 μM. The cells were then cultured for 8 days to develop into megakaryocytes and analyzed via flow cytometry to assess their number, maturity, and platelet count as defined by CD41a, CD42b and Calcein-AM expression. In addition, Compound I-32 and Compound I-1 were added to cells during the later stages of development (day 6) to assess their impact on maturation. ABT-737 (6 μmol) was used as a positive control and a DMSO vehicle control (<0.15% v/v) was the negative control. All counts are normalized to a media control (PBS) as a reference for basic cell growth.
# Statistical analysis. Statistical analyses were carried out by comparing effects on measured parameters in comparison to vehicle control. A value of […] (One-way ANOVA multiple comparisons) was considered as significant.
# Two isolations were performed from two healthy donors (2 males) and used to assess the impacts of Compound I-32 and Compound I-1. For one of the isolations, enough expanded hematopoietic stem and progenitor cells (HSPC) (Experiment 1) were obtained so that the addition of the compounds on day 6 was also performed along with the initial experiment. For the other experiment (Experiment 2) only an 8-day incubation was performed.
# All results were normalized to a reference media (PBS) and Compound I-32 and Compound I-1 were compared to a vehicle control. Reference compound ABT-737 is a known BCL-2 inhibitor and was used a positive control. Results in FIGS. 25A-25J are the summary of a single experiments conducted in triplicates. No statistical inhibition was detected for Compound I-32 or Compound I-1 (p>0.05 one-way ANOVA).
# [3] = test system: hepatic de novo lipogenesis; experiment: Hepatic de novo lipogenesis (14C-glucose) in a murine model of NASH; assay type: in vivo, mouse; conditions: for Hepatic de novo lipogenesis, Mean (DPM/gram liver tissue/hour): high fat/high fructose fed mice
# Procedure: Experimental Protocol. FIG. 22 summarizes the study protocol. Mice were dosed daily for 7 days with a single dose of either Compound I-32 or Compound I-1 at a dose of 10 mg/kg, 30 mg/kg or 60 mg/kg. On the 8th day of the experiment mice receive final dose of Compound I-32 or Compound I-1, followed one hour later by an I.P. bolus of 14—C Glucose.
# C57BL6J (8 weeks of age) were obtained for the Jackson Laboratory and fed a normal chow diet upon arrival. At ˜10 weeks of age, mice were given a diet containing high fat and high fructose (Rodent Diet with 40 kcal % Fat (Mostly Palm Oil), 20 kcal % fructose, and 0.02% cholesterol, obtained from Research Diets, Product Code: D19101102) and housed at thermoneutral conditions (26-29° C.). After 7-8 months the mice were divided into 7 groups and received a single daily dose via gavage of either vehicle (1.5% CMC and 0.2% Tween-20) or vehicle containing Compound I-32 or Compound I-1 at a concentration of 10 mg/kg, 30 mg/kg, or 60 mg/kg for 7 days. On the morning of day 8, animals received a final dose and after 1 hour ^14C-glucose (PerkinElmer) was administered at a concentration of 12 μCi per mouse in a volume of 0.1 ml in 0.9% saline I.P. One hour after ^14C-glucose was given, animals were anesthetized by I.P. injection of Ketamine/Xylazine (150 mg/12.4 mg/kg, respectively). Blood was drawn through cardiac puncture; the liver was removed, and a sample was from the left lobe and frozen in liquid nitrogen. Liver tissue was chipped on dry-ice and the weight of the chip weight recorded (30-50 mg of tissue). Liver tissue was homogenized in 1 ml of 2:1 chloroform: methanol using a bead homogenizer at 5000 rpm for 2×12 seconds. Samples were incubated with gentle shaking at 4° C. for 2 hours, vortexed for 2×12 seconds, and then centrifuge at 7000 rpm for 10 minutes at 4° C. The supernatant was transferred to a 1.5 ml Eppendorf and 200 μl of 0.9% saline was added. Samples were vortexed for 2×12 seconds and centrifuged at 3000 rpm for 10 minutes at 4° C. 200 μl of the lower organic phase was removed and added to 5 ml of scintillation fluid. The amount radioactivity in the sample was measured by scintillation counting. The number of disintegrations per minute (DPM) were determined over a 5-minute period and normalized to the amount of liver tissue. 5-10 μl of plasma obtained at termination was also counted and lipid/gram tissue counts were normalized to plasma counts. Statistical comparisons were carried out using a one-way ANOVA followed by Dunnett's post hoc test using GraphPad Prism 8 software. A p-value of less than or equal to 0.05 was used as the criterion of significance.
# [4] = target: BMX/ETK (Homo sapiens (Human), UniProt P51813); experiment: Wild type kinase screen: BMX/ETK; assay type: biochemical; conditions: compound at 10 μM, 10 μM ATP, Data 1 and Data 2 duplicates
# Sequence of BMX/ETK (P51813 whole entry): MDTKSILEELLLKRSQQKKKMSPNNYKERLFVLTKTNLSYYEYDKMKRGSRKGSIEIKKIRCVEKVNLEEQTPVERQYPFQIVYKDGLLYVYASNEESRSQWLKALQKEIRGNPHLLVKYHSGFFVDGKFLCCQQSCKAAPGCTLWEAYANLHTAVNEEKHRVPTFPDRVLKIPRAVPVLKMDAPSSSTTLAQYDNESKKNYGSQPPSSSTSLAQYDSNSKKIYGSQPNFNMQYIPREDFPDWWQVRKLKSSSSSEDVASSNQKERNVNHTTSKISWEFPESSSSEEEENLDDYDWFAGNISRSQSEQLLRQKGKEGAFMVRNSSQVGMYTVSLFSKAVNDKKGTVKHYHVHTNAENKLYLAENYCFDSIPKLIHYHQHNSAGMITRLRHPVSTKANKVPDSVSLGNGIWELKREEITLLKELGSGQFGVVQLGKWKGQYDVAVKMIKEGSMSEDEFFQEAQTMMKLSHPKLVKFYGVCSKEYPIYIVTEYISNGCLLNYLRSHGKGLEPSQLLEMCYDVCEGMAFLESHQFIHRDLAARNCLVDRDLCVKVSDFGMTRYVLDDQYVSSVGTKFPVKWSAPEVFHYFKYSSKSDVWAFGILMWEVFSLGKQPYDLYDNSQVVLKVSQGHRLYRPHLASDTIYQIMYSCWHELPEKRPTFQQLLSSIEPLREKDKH
# [5] = 10 mg/kg daily oral gavage for 7 days
# [6] = 30 mg/kg daily oral gavage for 7 days
# [7] = 60 mg/kg daily oral gavage for 7 days
SMILES,% Enzyme Activity (relative to DMSO controls) [1] [%],Inhibition of megakaryocyte/platelet parameters after addition on day 6 of culture [2],Inhibition of megakaryopoiesis or platelet production (overall) [2],"CD41a+ mean fluorescence intensity (MFI), normalized [2] [%]",Normalized cell size (CD41a+) [2] [%],"CD41a CD42b+ counts (mature megakaryocytes), normalized to reference media control [2] [%]","CD41a+ cells (megakaryocytes), normalized to reference media control [2] [%]","Platelet counts, normalized to reference media control [2] [%]","Hepatic de novo lipogenesis, Mean (DPM/gram liver tissue/hour) [3, 5]","Hepatic de novo lipogenesis, % change from vehicle control (inhibition) [3, 6]","Hepatic de novo lipogenesis, Mean (DPM/gram liver tissue/hour) [3, 6]","Hepatic de novo lipogenesis, % change from vehicle control (inhibition) [3, 7]","Hepatic de novo lipogenesis, Mean (DPM/gram liver tissue/hour) [3, 7]",% Enzyme Activity (relative to DMSO controls) [4] [%],"Hepatic de novo lipogenesis, % change from vehicle control (inhibition) [3, 5] [%]"
"CC(C)(CCCCc1ccc(CCCCC(C)(C)C(=O)O)cc1)C(=O)O [Compound I-1, 6-[4-(5-carboxy-5-methylhexyl)-phenyl]-2,2-dimethylhexanoic acid]",92.75,no inhibition detected,do not significantly affect; also recorded: do not inhibit,109±10,98±3,97±9,94±2,94±12,81.25 DPM/gram liver tissue/hour,56% and 55.65%,43.83 DPM/gram liver tissue/hour,69% and 68.96%,30.68 DPM/gram liver tissue/hour,51.72,–
"CC(C)(CCCCc1cccc(CCCCC(C)(C)C(=O)O)c1)C(=O)O [Compound I-32, 6-[3-(5-carboxy-5-methylhexyl)-phenyl]-2,2-dimethylhexanoic acid]",90.61,no inhibition detected,do not significantly affect; also recorded: do not inhibit,110±11,94±3,106±17,98±3,134±34,50.61 DPM/gram liver tissue/hour,37.42%,61.85 DPM/gram liver tissue/hour,53% and 52.90%,46.55 DPM/gram liver tissue/hour,52.97,48.79
